Where a name gives a salt, the structure may show the parent alone.

From patent publication US20090318424A1, “NOVEL COMPOUNDS” (priority 2006, published 2009) come the findings set out here.

Series [1] has as its system influx of neutrophils to the lung in LPS-challenged rats. Description: Rat LPS neutrophilia model. It counts as in vivo. The conditions noted are these: LPS aerosol 100 ug/ml 15 min, lavage 4 hours later; in at least one of the range of conditions tested. On the procedure:
The effect of compounds on the influx of neutrophils to the lung in LPS-challenged rats is evaluated as follows. The test compound is suspended in one of the following solutions: 0.5% tween 80/PBS, 0.5% tween 80/saline, 10% EtOH/saline (with pH adjusted to 2.0, or 8.0 with HCl, or unadjusted), Saline @ pH 2.0, 6.5 or 8.0, 0.5% Tragacanth, 1% DMSO/20% Encapsin/Saline, or acidified 5% Tragacanth. The suspension process may be aided by the use of a glass homogenizer. For intratracheal administration, the animals are anesthetized with inhaled isoflurane and placed in a supine position, the trachea is intubated with a steel gavage needle (1.5 inch, 22 gauge, small ball) or a Penn-Century Microsprayer Aerosolizer (model IA-IB) and 200 ul of dosing solution is delivered. The animals are visually monitored during the recovery process, which typically occurs within two minutes.
Rats treated with compound or vehicle (15 min-24 hours pretreatment) are exposed to an LPS aerosol (100 ug/ml) for 15 min. Four hours later the rats are euthanized with pentobarbital (100 mg/kg, i.p.) and the airways are lavaged with 5 washes of 5 ml of phosphate buffered saline. The harvested cells are stained (Diffquick) and counted to determine total and differential cell data. In a typical study, macrophages represent 40-70% of the total cells, and polymorphonuclear cells 30-60% of the total cells. Inhibition of neutrophil levels relative to no compound controls is calculated based on the differential counts.
The assay has varying conditions, such as concentration, pretreat time, form of the compound (crystalline, amorphous, salts, micronised), and a wet or dry application of the compound. The data is obtained as % inhibition using a particular concentration and pretreat time.

The melting point is the temperature, or range, at which the solid turns liquid. In the case of `COc1nc(-c2cc(NC(=O)c3ccsc3)ccc2C)c2c(n1)N(c1c(F)cccc1F)C(=O)NC2` [10(e), N-{3-[8-(2,6-difluorophenyl)-2-(methyloxy)-7-oxo-5,6,7,8-tetrahydropyrimido-[4,5-d]pyrimidin-4-yl]-4-methylphenyl}-3-thiophenecarboxamide], the melting point is 225 to 228 °C (dec.).
Consider `Cc1ccc(C(=O)NCc2ccccc2)cc1-c1nc(N2CCC(N)CC2)nc2c1CNC(=O)N2c1c(F)cccc1F` [15(c), 3-[2-(4-Amino-1-piperidinyl)-8-(2,6-difluorophenyl)-7-oxo-5,6,7,8-tetrahydropyrimido[4,5-d]pyrimidin-4-yl]-4-methyl-N-(phenylmethyl)benzamide], for which the melting point was 210 to 266 °C (dec.).
`CNCCNc1nc(-c2cc(C(=O)NCc3ccccc3)ccc2C)c2c(n1)N(c1c(F)cccc1F)C(=O)NC2` [19(b), 3-(8-(2,6-Difluorophenyl)-2-{[2-(methylamino)ethyl]amino}-7-oxo-5,6,7,8-tetrahydropyrimido[4,5-d]pyrimidin-4-yl)-4-methyl-N-(phenylmethyl)benzamide] registered a melting point of 157 to 161 °C.
With `Cc1ccc(C(=O)NCc2ccccc2)cc1-c1nc(NC2CCNCC2)nc2c1CNC(=O)N2c1c(F)cccc1F` [21(b), 3-[8-(2,6-Difluorophenyl)-7-oxo-2-(4-piperidinylamino)-5,6,7,8-tetrahydropyrimido[4,5-d]pyrimidin-4-yl]-4-methyl-N-(phenylmethyl)benzamide], the melting point is 172 to 176 °C (dec.).
`Cc1ccc(C(=O)N(C)C)cc1-c1nc(N2CCN(C)CC2)nc2c1CNC(=O)N2c1c(F)cccc1F` [149(c), 3-[8-(2,6-difluorophenyl)-2-(4-methyl-1-piperazinyl)-7-oxo-5,6,7,8-tetrahydropyrimido[4,5-d]pyrimidin-4-yl]-N,N,4-trimethylbenzamide] came in with a melting point of 159 to 162 °C.
The same measure, in the same setting: in the case of `CCN(CC)C(=O)c1ccc(C)c(-c2nc(NCCN(C)C)nc3c2CNC(=O)N3c2c(F)cccc2F)c1` [156(c), 3-(8-(2,6-difluorophenyl)-2-{[2-(dimethylamino)ethyl]amino}-7-oxo-5,6,7,8-tetrahydropyrimido[4,5-d]pyrimidin-4-yl)-N,N-diethyl-4-methylbenzamide] it was 125 to 127 °C.
With `CN(C)CCNc1nc(-c2cccc(C(=O)Nc3ccccc3)c2)c2c(n1)N(c1c(F)cccc1F)C(=O)NC2` [Example 91, 3-(8-(2,6-difluorophenyl)-2-{[2-(dimethylamino)ethyl]amino}-7-oxo-5,6,7,8-tetrahydropyrimido[4,5-d]pyrimidin-4-yl)-N-phenylbenzamide], in series [1], the inhibition of neutrophilia result was “statistically significant inhibition”.
For `CN(C)CCNc1nc(-c2cccc(C(=O)Nc3nccs3)c2)c2c(n1)N(c1c(F)cccc1F)C(=O)NC2` [Example 92, 3-(8-(2,6-difluorophenyl)-2-{[2-(dimethylamino)ethyl]amino}-7-oxo-5,6,7,8-tetrahydropyrimido[4,5-d]pyrimidin-4-yl)-N-1,3-thiazol-2-ylbenzamide], in series [1], the inhibition of neutrophilia entry was “statistically significant inhibition”.
Still for that read-out and setting: in the case of `CN(C)CCNc1nc(-c2cccc(C(=O)Nc3ccc(F)cc3)c2)c2c(n1)N(c1c(F)cccc1F)C(=O)NC2` [Example 93, 3-(8-(2,6-difluorophenyl)-2-{[2-(dimethylamino)ethyl]amino}-7-oxo-5,6,7,8-tetrahydropyrimido[4,5-d]pyrimidin-4-yl)-N-(4-fluorophenyl)benzamide] it was “statistically nonsignificant inhibition”; in that of `Cc1c(F)cc(C(=O)Nc2ccccc2)cc1-c1nc(NCCN(C)C)nc2c1CNC(=O)N2c1c(F)cccc1F` [Example 112, 3-(8-(2,6-difluorophenyl)-2-{[2-(dimethylamino)ethyl]amino}-7-oxo-5,6,7,8-tetrahydropyrimido[4,5-d]pyrimidin-4-yl)-5-fluoro-4-methyl-N-phenylbenzamide], “statistically significant inhibition”; in that of `Cc1ccc(C(=O)Nc2nccs2)cc1-c1nc(NCCCN(C)C)nc2c1CNC(=O)N2c1c(F)cccc1F` [Example 119, 3-(8-(2,6-difluorophenyl)-2-{[3-(dimethylamino)propyl]amino}-7-oxo-5,6,7,8-tetrahydropyrimido[4,5-d]pyrimidin-4-yl)-4-methyl-N-1,3-thiazol-2-ylbenzamide], “statistically significant inhibition”.
Still for that read-out and setting: the result for `CCN(CC)CCCNc1nc(-c2cc(C(=O)Nc3nccs3)ccc2C)c2c(n1)N(c1c(F)cccc1F)C(=O)NC2` [Example 120, 3-[2-{[3-(diethylamino)propyl]amino}-8-(2,6-difluorophenyl)-7-oxo-5,6,7,8-tetrahydropyrimido[4,5-d]pyrimidin-4-yl]-4-methyl-N-1,3-thiazol-2-ylbenzamide] reads “statistically significant inhibition”; that for `Cc1ccc(C(=O)Nc2nccs2)cc1-c1nc(N(C)CCCN(C)C)nc2c1CNC(=O)N2c1c(F)cccc1F` [Example 124, 3-{8-(2,6-difluorophenyl)-2-[[3-(dimethylamino)propyl](methyl)amino]-7-oxo-5,6,7,8-tetrahydropyrimido[4,5-d]pyrimidin-4-yl}-4-methyl-N-1,3-thiazol-2-ylbenzamide], “statistically nonsignificant inhibition”.
`CSc1ccc(NC(=O)c2ccc(C)c(-c3nc(NCCN(C)C)nc4c3CNC(=O)N4c3c(F)cccc3F)c2)cc1` [Example 127, 3-(8-(2,6-difluorophenyl)-2-{[2-(dimethylamino)ethyl]amino}-7-oxo-5,6,7,8-tetrahydropyrimido[4,5-d]pyrimidin-4-yl)-4-methyl-N-[4-(methylthio)phenyl]benzamide]: the inhibition of neutrophilia result in series [1] is recorded as “statistically significant inhibition”.
Still for that read-out and setting: the result for `Cc1ccc(C(=O)Nc2nccs2)cc1-c1nc(NC[C@H](C)O)nc2c1CNC(=O)N2c1c(F)cccc1F` [Example 134, 3-(8-(2,6-difluorophenyl)-2-{[(2S)-2-hydroxypropyl]amino}-7-oxo-5,6,7,8-tetrahydropyrimido[4,5-d]pyrimidin-4-yl)-4-methyl-N-1,3-thiazol-2-ylbenzamide] reads “statistically nonsignificant inhibition”; that for `Cc1ccc(C(=O)Nc2ccccc2)cc1-c1nc(NCCN(C)C)nc2c1CNC(=O)N2c1c(F)cccc1F` [Example 137, 3-(8-(2,6-difluorophenyl)-2-{[2-(dimethylamino)ethyl]amino}-7-oxo-5,6,7,8-tetrahydropyrimido[4,5-d]pyrimidin-4-yl)-4-methyl-N-phenylbenzamide], “statistically significant inhibition”; that for `Cc1ccc(C(=O)Nc2ccc(F)c(F)c2)cc1-c1nc(NCCN(C)C)nc2c1CNC(=O)N2c1c(F)cccc1F` [Example 138, N-(3,4-difluorophenyl)-3-(8-(2,6-difluorophenyl)-2-{[2-(dimethylamino)-ethyl]amino}-7-oxo-5,6,7,8-tetrahydropyrimido[4,5-d]pyrimidin-4-yl)-4-methylbenzamide], “statistically significant inhibition”.
`COc1ccc(NC(=O)c2ccc(C)c(-c3nc(NCCN(C)C)nc4c3CNC(=O)N4c3c(F)cccc3F)c2)cn1` [Example 140, 3-(8-(2,6-difluorophenyl)-2-{[2-(dimethylamino)ethyl]amino}-7-oxo-5,6,7,8-tetrahydropyrimido[4,5-d]pyrimidin-4-yl)-4-methyl-N-[6-(methyloxy)-3-pyridinyl]benzamide]: the inhibition of neutrophilia result in series [1] was “statistically significant inhibition”.
Same read-out and setting: in the case of `CCc1ccc(C(=O)Nc2nccs2)cc1-c1nc(NCCN(C)C)nc2c1CNC(=O)N2c1c(F)cccc1F` [Example 144, 3-(8-(2,6-difluorophenyl)-2-{[2-(dimethylamino)ethyl]amino}-7-oxo-5,6,7,8-tetrahydropyrimido[4,5-d]pyrimidin-4-yl)-4-ethyl-N-1,3-thiazol-2-ylbenzamide Trilfluoroacetate] it was “statistically significant inhibition”; in that of `Cc1ccc(C(=O)NC(C)C)cc1-c1nc(N2CCCN(C)CC2)nc2c1CNC(=O)N2c1c(F)cccc1F` [Example 179, 3-[8-(2,6-difluorophenyl)-2-(4-methylhexahydro-1H-1,4-diazepin-1-yl)-7-oxo-5,6,7,8-tetrahydropyrimido[4,5-d]pyrimidin-4-yl]-4-methyl-N-(1-methylethyl)benzamide Trifluoroacetate], “statistically nonsignificant inhibition”.
Consider `Cc1ccc(C(=O)NC(C)C)cc1-c1nc(NC2CCN(Cc3ccccc3)CC2)nc2c1CNC(=O)N2c1c(F)cccc1F` [Example 200, 3-(8-(2,6-difluorophenyl)-7-oxo-2-{[1-(phenylmethyl)-4-piperidinyl]amino}-5,6,7,8-tetrahydropyrimido[4,5-d]pyrimidin-4-yl)-4-methyl-N-(1-methylethyl)benzamide], for which the inhibition of neutrophilia entry in series [1] is reported as “statistically significant inhibition”.
